# Source: patent US20080194531A1, “Methods for Treating Visual Disorders” (priority 2005, published 2008)
# Entries after “also recorded” stand apart in the source; their conditions may differ.
# Key:
# [1] = system: neurosensory retinal degeneration (P23H rat); test: Outer nuclear layer (ONL) cell counting / retinal histopathology in homozygous P23H rats given TUDCA subcutaneously; type: in vivo
# From the text: We have studied the use of bile acids (tauroursodeoxycholic acid, TUDCA) for inhibition of neurosensory retinal degeneration in an animal model of retinal degeneration (P23H rat).
# Animal Studies: The P23H rat model of inherited retinal degeneration is an animal model of a common mutation found in >10% of autosomal dominantly inherited retinitis pigmentosa in humans. This animal model has been studied in the laboratory of Dr. Olsen at the University of Minnesota. The mechanism of retinal degeneration is mediated by apoptosis, but may follow a separate pathway than that of the rds mouse. The P23H rat model represents a protein conformational disorder that leads to retinal degeneration. Other examples of protein conformation disorders include Huntington's and Parkinson's disease.
# (§1) Preliminary Study: Homozygous line 1 and line 3 P23H rats (very strong model of rapid retinal degeneration, especially in the homozygous state), were given 100-200 mg/kg/d of TUDCA via subcutaneous injections while control animals will be given placebo vehicle only. Animals were sacrificed at intervals that correspond to the known retinal degenerations. Eyes were enucleated and the neurosensory retina was examined for signs of neuroprotection by counting the cell nuclei in the various retinal layers (FIG. 1; study design). For each animal studied, 14 sections were taken for each eye with 30-50 separate measurements performed and averaged for each section. Counting the average number of outer nuclear layer (ONL) cells was used to determine the level of retinal injury or loss.
# [2] = Animal weight recordings in TUDCA-treated P23H rats; type: in vivo, rat; conditions: p<0.05, TUDCA 100-200 mg/kg/d subcutaneous, suggests systemic toxicity
# Experimental: as §1
# [3] = system: inherited retinal degeneration (rds mouse); conditions: preliminary work; cited from earlier work
# apoptosis = conditions: in vitro and in vivo; blocking classic pathways, induction of survival pathways; cited from earlier work
# [4] = system: Huntington's disease animal models; conditions: animal models of Huntington's disease; cited from earlier work
# Parkinsonian rats = conditions: cited from earlier work
# [5] = system: neurologic injury after acute ischemic or hemorrhagic stroke; conditions: cited from earlier work
compound,measurement,setting,value
"C[C@H](CCC(=O)NCCS(=O)(=O)O)[C@H]1CC[C@H]2[C@@H]3[C@@H](O)C[C@@H]4C[C@H](O)CC[C@]4(C)[C@H]3CC[C@]12C [TUDCA, tauroursodeoxycholic acid]","thickness of the ONL in histopathologic images, drug treated vs vehicle","[1]; homozygous P23H rat line 1, week 12, TUDCA 100-200 mg/kg/d subcutaneous, FIG. 2",visible difference in the thickness of the drug treated ONL as compared to the vehicle
same,"average number of ONL cells, TUDCA vs vehicle controls","[1]; homozygous P23H rat line 1, weeks 7, 10 and 12, TUDCA 100-200 mg/kg/d subcutaneous, FIG. 3",no statistically significant differences; also recorded: no statistically significant protective effect
same,rate of retinal degeneration by counting the ONL layer thickness,"[1]; homozygous P23H rat line 3, 9 week post-natal time point, p=0.16 (not statistically significant), TUDCA 100-200 mg/kg/d subcutaneous, FIG. 4",trend toward a protective effect
same,"thickness of the ONL in histopathologic images, drug treated vs control","[1]; homozygous P23H rat line 3, TUDCA 100-200 mg/kg/d subcutaneous, FIG. 2",less noticeable difference between the drug treated and the control
same,"animal weight, treated vs controls","[2]; P23H rat line 1, by day 37 and beyond",significant weight loss
same,"animal weight, treated vs controls","[2]; P23H rat line 3, by day 37 and beyond",significant weight loss
same,electroretinographic response (functional test of vision),[3],preservation of visual function
same,protection of the inner nuclear layer of the retina,[3],dramatic protection of the inner nuclear layer of the retina
same,interruption of apoptosis,apoptosis,will interrupt apoptosis
same,neuroprotection,[4],neuroprotective
same,graft survival,Parkinsonian rats,improved graft survival
same,protection against neurologic injury,[5],protect against neurologic injury
